These results are taken from US8309685B2 (Celgene Avilomics Research, Inc., priority 2007, dated 2012).

The target of assay [1] is T1, D168A mutant of the HCV NS3/4A 1b protease enzyme (Hepatitis C virus genotype 1b, UniProt P26663, D1194A).
T1 construct: 10× stocks of NS3/4A protease enzyme from Bioenza (Mountain View, Calif.); purchased Bioenza (Mountain View, Calif.)
In words: HCV Protease FRET Assay (IC50), D168A mutant. The note with it: read-out: Inhibition, HCV D168A; D168A enzyme, FRET assay. It counts as biochemical. The procedure: (§1) HCV Protease FRET Assay for Wild Type and Mutated NS3/4A 1b Enzymes (IC50)
(§2) Protease reactions were started with the addition of 45 μL of the FRET substrate and monitored for 120 minutes at λex487/λem514 through Quad^4 monochromoters in a Synergy^4 plate reader from BioTek (Winooski, Vt.). At the conclusion of each assay, progress curves from each well were examined for linear reaction kinetics and fit statistics (R^2, absolute sum of squares).
(§3) The compound numbers correspond to the compound numbers in Table 3.

Assay [2] addresses T2, wild type HCV NS3/4A 1b protease enzyme (Hepatitis C virus genotype 1b, UniProt P26663).
T2 construct: 10× stocks of NS3/4A protease enzyme from Bioenza (Mountain View, Calif.); purchased Bioenza (Mountain View, Calif.)
The experiment in a line: biochemical. The format is biochemical. The settings on record: read-out: Inhibition, WT; WT enzyme, FRET assay. The procedure:
as §1, §2, §3

Assay [3] concerns HCV RNA replicon in cell line ET (luc-ubi-neo/ET), human Huh7 hepatoma. In words: Method A: HCV RNA replicon antiviral assay (luciferase, ET cell line). It counts as cell-based, Hepatitis C virus. The note with it: Hepatitis C virus, Huh-7, assay described in Example 22; for IC50: read-out: Replicon (IC50). The method, then: The compounds were assayed to evaluate the antiviral activity and cytotoxicity of compounds in vitro using HCV RNA replicons. This assay used the cell line ET (luc-ubi-neo/ET), which is a human Huh7 hepatoma cell line that contains an HCV RNA replicon with a stable luciferase (Luc) reporter and three cell culture-adaptive mutations. […]
The ET cell line was grown in Dulbecco's modified essential media (DMEM), 10% fetal bovine serum (FBS), 1% penicillin-streptomycin (pen-strep), 1% glutamine, 250 μg/ml G418 in a 5% CO2 incubator at 37° C. All cell culture reagents were obtained from Mediatech (Manassas, Va.). Cells were trypsinized (1% trypsin:EDTA) and plated out at 5×10^3 cells/well in white 96-well assay plates (Costar) dedicated to cell number (cytotoxicity) or antiviral activity assessments. Drugs were added at six 3-fold concentrations each and the assay was run in DMEM, 5% FBS, 1% pen-strep, 1% glutamine. Human interferon alpha-2b (PBL Biolabs, New Brunswick, N.J.) was included in each run as a positive control compound. Cells were processed 72 hr post drug addition when the cells are still subconfluent. Antiviral activity was measured by analyzing replicon-derived luciferase activity using the Steady-Glo Luciferase Assay System (Promega, Madison, Wis.) according to manufacturer's instruction. The number of cells in each well was determined by CytoTox-1 reagent (Promega). Compound profile was derived by calculating applicable EC50 (effective concentration inhibiting virus replication by 50%), EC90 (effective concentration inhibiting virus replication by 90%), IC50 (concentration decreasing cell viability by 50%) and SI50 (selective index: […]) values.
On the technique in general: In antiviral work, replicon cells carry a viral genome segment that copies itself.

Assay [4] addresses T3, A156T mutant of the HCV NS3/4A 1b protease enzyme (Hepatitis C virus genotype 1b, UniProt P26663, A1182T).
T3 construct: 10× stocks of NS3/4A protease enzyme from Bioenza (Mountain View, Calif.); purchased Bioenza (Mountain View, Calif.)
The experiment in a line: HCV Protease FRET Assay (IC50_APP), A156T mutant. It counts as biochemical. The settings on record: apparent IC50, A156T mutant; read-out: IC50_APP, HCV A156T. The procedure: (§4) HCV Protease FRET Assay for WT and Mutated NS3/4A 1b Enzymes (IC50—APP).
(§5) The following protocol was used to generate “apparent” IC50 (IC50—APP) values as depicted in Table 6, below. […] 5 μL of each enzyme were added to Corning (#3575) 384-well, black, microtiter plates (Corning, N.Y.) after spotting a 0.5 μL volume of 50% DMSO and serially diluted compounds prepared in 50% DMSO. Protease reactions were immediately started after enzyme addition with the addition of 45 μL of the FRET substrate and monitored for 60-90 minutes at λex485/λem520 in a Synergy^4 plate reader from BioTek (Winooski, Vt.). At the conclusion of each assay, progress curves from each well were examined for linear reaction kinetics and fit statistics (R^2, 95% confidence intervals, absolute sum of squares).
(§6) The compound numbers correspond to the compound numbers in Table 3. […] ;

Assay [5] deals with T1, D168A mutant of the HCV NS3/4A 1b protease enzyme. In words: HCV Protease FRET Assay (IC50_APP), D168A mutant. It counts as biochemical. The settings on record: apparent IC50, D168A mutant; read-out: IC50_APP, HCV D168A. The procedure:
as §4, §5, §6

Assay [6] deals with T2, wild type HCV NS3/4A 1b protease enzyme. In words: HCV Protease FRET Assay (IC50_APP), wild type. It counts as biochemical. The procedure: as §4, §5, §6
The mark [7] stands for this setting: read-out: IC50_APP, WT, apparent IC50, wild type NS3/4A 1b.

Turning to `C=C[C@@H]1C[C@]1(NC(=O)[C@@H]1C[C@@H](Oc2cc(-c3ccccc3)nc3cc(OC)ccc23)CN1C(=O)CNC(=O)[C@@H](Cl)c1ccccc1)C(=O)NS(=O)(=O)c1ccccc1` (stereo in doubt) [Compound I-45, (2S,4R)-1-(2-((S,R)-2-chloro-2-phenylacetamido)acetyl)-4-(7-methoxy-2-phenylquinolin-4-yloxy)-N-((1R,2S)-1-(phenylsulfonylcarbamoyl)-2-vinylcyclopropyl)pyrrolidine-2-carboxamide], the IC50 in assay [1] was 1000 to 10000 nM; in assay [2] it was 100 to 1000 nM.
As to `C=C[C@@H]1C[C@]1(NC(=O)[C@@H]1C[C@@H](Oc2cc(-c3ccccc3)nc3cc(OC)ccc23)CN1C(=O)[C@H](CCNC(=O)C(C)Cl)NC(=O)OC(C)(C)C)C(=O)NS(=O)(=O)c1ccccc1` (stereo partly drawn) [Compound I-1, (2S)-2-[[(1,1-dimethylethoxy)carbonyl]amino]-4-(R,S-chloropropionyl)amino-butanoyl-(4R)-4-[(7-methoxy-2-phenyl-4-quinolinyl)oxy]-L-prolyl-1-amino-2-ethenyl-N-(phenylsulfonyl)-(1R,2S)-cyclopropanecarboxamide], the IC50 in assay [1] is 1000 to 10000 nM; in assay [2], below 10 nM.
For `C=C[C@@H]1C[C@]1(NC(=O)[C@@H]1C[C@@H](Oc2cc(-c3ccccc3)nc3cc(OC)ccc23)CN1C(=O)[C@H](CC1CO1)NC(=O)OC(C)(C)C)C(=O)NS(=O)(=O)c1ccccc1` (stereo partly drawn) [Compound I-6, (2S)-2-[[(1,1-dimethylethoxy)carbonyl]amino]-3-oxiranepropanoyl-(4R)-4-[(7-methoxy-2-phenyl-4-quinolinyl)oxy]-L-prolyl-1-amino-2-ethenyl-N-(phenylsulfonyl)-(1R,2S)-cyclopropanecarboxamide] the same measures were 100 to 1000 nM and below 10 nM.
As for `C=C[C@@H]1C[C@]1(NC(=O)[C@@H]1C[C@@H](Oc2cc(-c3ccccc3)nc3cc(OC)ccc23)CN1C(=O)[C@H](CNC(=O)C1(C#N)CC1)NC(=O)OC(C)(C)C)C(=O)NS(=O)(=O)c1ccccc1` [Compound I-11, N-[(1,1-dimethylethoxy)carbonyl]-3-[(1-cyano-cyclopropylcarboxyl)amino]-L-alanyl-(4R)-4-[(7-methoxy-2-phenyl-4-quinolinyl)oxy]-L-prolyl-1-amino-2-ethenyl-N-(phenylsulfonyl)-(1R,2S)-cyclopropanecarboxamide], the figures for the IC50 in assay [1] and in assay [2] were 100 to 1000 nM and below 10 nM, respectively.
For `C=C[C@@H]1C[C@]1(NC(=O)[C@@H]1C[C@@H](Oc2cc(-c3ccccc3)nc3cc(OC)ccc23)CN1C(=O)[C@H](CNC(=O)[C@@H](C)Cl)NC(=O)OC(C)(C)C)C(=O)NS(=O)(=O)c1ccccc1` [Compound I-13, N-[(1,1-dimethylethoxy)carbonyl]-3-[R-(chloropropionyl)amino]-L-alanyl-(4R)-4-[(7-methoxy-2-phenyl-4-quinolinyl)oxy]-L-prolyl-1-amino-2-ethenyl-N-(phenylsulfonyl)-(1R,2S)-cyclopropanecarboxamide] the same measures were 100 to 1000 nM and below 10 nM.
For the compound `C=C[C@@H]1C[C@]1(NC(=O)[C@@H]1C[C@@H](Oc2cc(-c3ccccc3)nc3cc(OC)ccc23)CN1C(=O)[C@H](CNC(=O)[C@H](C)Cl)NC(=O)OC(C)(C)C)C(=O)NS(=O)(=O)c1ccccc1` [Compound I-21, tert-butyl(S)-3-((S)-2-chloropropanamido)-1-((2S,4R)-4-(7-methoxy-2-phenylquinolin-4-yloxy)-2-((1R,2S)-1-(phenylsulfonylcarbamoyl)-2-vinylcyclopropylcarbamoyl)pyrrolidin-1-yl)-1-oxopropan-2-ylcarbamate], the IC50 in assay [1] is 100 to 1000 nM; in assay [2] it was below 10 nM.
On the same counts, the results for `C=C[C@@H]1C[C@]1(NC(=O)[C@@H]1C[C@@H](Oc2cc(-c3ccccc3)nc3cc(OC)ccc23)CN1C(=O)C1(NC(=O)OC(C)(C)C)CCNCC1)C(=O)NS(=O)(=O)c1ccccc1` [Compound I-24, tert-butyl-4-((2S,4R)-4-(7-methoxy-2-phenylquinolin-4-yloxy)-2-((1R,2S)-1-(phenylsulfonylcarbamoyl)-2-vinylcyclopropylcarbamoyl)pyrrolidine-1-carbonyl)piperidin-4-ylcarbamate] are 1000 to 10000 nM and 100 to 1000 nM.
`C=CC(=O)NC[C@H](NC(=O)CCCCCNC(=O)CCCC[C@@H]1SC[C@@H]2NC(=O)N[C@@H]21)C(=O)N1C[C@H](Oc2cc(-c3ccccc3)nc3cc(OC)ccc23)C[C@H]1C(=O)N[C@]1(C(=O)NS(=O)(=O)c2ccccc2)C[C@H]1C=C` [Compound I-31, (2S,4R)-1-((S)-3-acrylamido-2-(6-(5-((3aS,4S,6aR)-2-oxohexahydro-1H-thieno[3,4-d]imidazol-4-yl)pentanamido)hexanamido)propanoyl)-4-(7-methoxy-2-phenylquinolin-4-yloxy)-N-((1R,2S)-1-(phenylsulfonylcarbamoyl)-2-vinylcyclopropyl)pyrrolidine-2-carboxamide]: the IC50 is 10 to 100 nM in assay [1] and below 10 nM in assay [2].
As usually defined, the IC90 is the concentration at which the effect reaches the 90% level. Higher therefore signals weaker potency. In assay [3], `C=CC(=O)N(C)CC[C@H](NC(=O)OC1CCCC1)C(=O)N1C[C@H](Oc2cc(-c3ccccc3)nc3cc(OC)ccc23)C[C@H]1C(=O)N[C@]1(C(=O)NS(=O)(=O)C2CC2)C[C@H]1C=C` [Compound I-85, Cyclopentyl-(S)-1-((2S,4R)-2-((1R,2S)-1-(cyclopropylsulfonylcarbamoyl)-2-vinylcyclopropylcarbamoyl)-4-(7-methoxy-2-phenylquinolin-4-yloxy)pyrrolidin-1-yl)-4-(N-methylacrylamido)-1-oxobutan-2-ylcarbamate] displayed an IC90 of 10 to 100 nM. Besides, the IC50 in assay [3] was 10 to 100 nM; in assay [4], 10 to 100 nM; in assay [5], 10 to 100 nM; in assay [6] (setting [7]), below 10 nM.
For `C=C[C@@H]1C[C@]1(NC(=O)[C@@H]1C[C@@H](Oc2nccc3ccccc23)CN1C(=O)[C@H](CCC(=O)C=C(C)C)NC(=O)OC(C)(C)C)C(=O)NS(=O)(=O)C1CC1` [Compound I-86, tert-butyl-(S)-1-((2S,4R)-2-((1R,2S)-1-(cyclopropylsulfonylcarbamoyl)-2-vinylcyclopropylcarbamoyl)-4-(isoquinolin-1-yloxy)pyrrolidin-1-yl)-7-methyl-1,5-dioxooct-6-en-2-ylcarbamate], the IC90 in assay [3] was in the range of 10 to 100 nM. The IC50 in assay [3] was below 10 nM; in assay [4] it was 100 to 1000 nM; in assay [5] it was 100 to 1000 nM; in assay [6] (setting [7]), below 10 nM.
For `C=C[C@@H]1C[C@]1(NC(=O)[C@@H]1C[C@@H](Oc2nccc3ccc(-c4cccs4)cc23)CN1C(=O)[C@H](CCC(=O)C=C(C)C)NC(=O)OC(C)(C)C)C(=O)NS(=O)(=O)C1CC1` [Compound I-87, tert-butyl-(S)-1-((2S,4R)-2-((1R,2S)-1-(cyclopropylsulfonylcarbamoyl)-2-vinylcyclopropylcarbamoyl)-4-(7-(thiophen-2-yl)isoquinolin-1-yloxy)pyrrolidin-1-yl)-7-methyl-1,5-dioxooct-6-en-2-ylcarbamate], in assay [3], the IC90 is 10 to 100 nM. The IC50 in assay [3] was below 10 nM; in assay [4], 10 to 100 nM; in assay [5], 100 to 1000 nM; in assay [6], below 10 nM.
